According to article PMC5893540, “Mechanistic insights into allosteric regulation of the A2A adenosine G protein-coupled receptor by physiological cations” (Nature Communications, 2018):
Where “and” joins values, the source holds several entries; their conditions need not be identical. Equal entries are not always repeated. Entries after “also recorded” stand apart in the source; their conditions may differ. Where two headings read alike, the source gives them in different places.

Experiments:
A2AR + Gs = target: T1, A2AR + Gs (Homo sapiens, UniProt P29274, V229C); experiment: [3H]NECA binding in A2AR/Gs-infected Sf9 membranes; details: for effect of cation on specific [3H]NECA binding / EC50: 10 nM [3H]NECA; for effect of cation on specific [3H]NECA binding: increasing cation concentration; for effect on [3H]NECA high affinity saturation: 2.5 mM cation; for EC50: read-out: half-maximal cation concentration for enhancement of [3H]NECA binding, 100 mM NaCl
T1 construct: Flag (N); TEV site (N); His10 (H10) (C); expressed in transfected cells; host or cells: Sf9 insect cells, baculovirus co-infection (A2AR, Gαs, Gβγ); membranes
T1 sequence (P29274 1-316 V229C limits assumed): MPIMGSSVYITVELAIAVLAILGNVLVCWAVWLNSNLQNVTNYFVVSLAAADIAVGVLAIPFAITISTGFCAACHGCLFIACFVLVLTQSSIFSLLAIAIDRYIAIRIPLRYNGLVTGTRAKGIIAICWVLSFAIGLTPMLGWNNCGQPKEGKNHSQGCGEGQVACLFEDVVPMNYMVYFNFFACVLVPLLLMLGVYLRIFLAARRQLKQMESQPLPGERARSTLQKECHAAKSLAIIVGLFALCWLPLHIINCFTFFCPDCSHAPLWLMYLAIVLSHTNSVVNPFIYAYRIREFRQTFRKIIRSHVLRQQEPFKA
T1 sequence (P63092 whole entry partner): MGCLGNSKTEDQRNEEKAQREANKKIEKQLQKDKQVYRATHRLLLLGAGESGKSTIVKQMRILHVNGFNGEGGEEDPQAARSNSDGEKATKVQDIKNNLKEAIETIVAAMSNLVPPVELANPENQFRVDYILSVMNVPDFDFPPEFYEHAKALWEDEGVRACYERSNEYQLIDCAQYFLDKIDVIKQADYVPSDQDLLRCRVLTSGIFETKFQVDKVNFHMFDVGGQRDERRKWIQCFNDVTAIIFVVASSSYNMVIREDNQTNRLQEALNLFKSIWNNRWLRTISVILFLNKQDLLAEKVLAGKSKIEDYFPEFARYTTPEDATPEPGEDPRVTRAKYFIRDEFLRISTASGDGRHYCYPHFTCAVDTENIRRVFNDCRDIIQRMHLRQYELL
T1 sequence (P62873 whole entry partner): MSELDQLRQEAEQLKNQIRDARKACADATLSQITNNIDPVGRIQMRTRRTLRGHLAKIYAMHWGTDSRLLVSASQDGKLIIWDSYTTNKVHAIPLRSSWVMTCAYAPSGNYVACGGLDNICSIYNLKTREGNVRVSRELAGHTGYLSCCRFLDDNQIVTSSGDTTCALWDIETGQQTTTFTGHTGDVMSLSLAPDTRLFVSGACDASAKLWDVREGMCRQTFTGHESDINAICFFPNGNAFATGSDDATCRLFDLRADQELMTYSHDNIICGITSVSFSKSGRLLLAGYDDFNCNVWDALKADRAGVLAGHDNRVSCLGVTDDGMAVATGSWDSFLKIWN
T1 sequence (P59768 2-68 partner limits assumed): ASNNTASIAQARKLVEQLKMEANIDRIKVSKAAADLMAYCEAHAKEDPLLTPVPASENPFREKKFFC
Excerpt: The above ^19F NMR observations are further recapitulated in radioligand binding assays in Sf9 cell membranes in which the identical A2AR construct was co-expressed with the heterotrimeric stimulatory G protein, Gαsβγ.
Error bars for radioligand binding assays are defined based on three replicates

BTFMA-labeled A2AR-V229C = target: T2, BTFMA-labeled A2AR-V229C (Homo sapiens, UniProt P29274, V229C); experiment: 19F NMR of functional state populations (S1-2, S3, S3'); details: for effect on active state population: 20 mM cation, saturating NECA and Gαs peptide, 100 mM NaCl; for effect on populations of functional states: apo A2AR in MNG-3 micelles, divalent cations 100–500 mM, KCl with 10 or 100 mM NaCl
T2 construct: alpha-factor secretion leader (Fα-Factor) (N); Flag (N); TEV site (N); His10 (H10) (C); made in house; host or cells: Pichia pastoris SMD 1163
T2 sequence (P29274 1-316 V229C limits assumed): as the sequence (P29274 1-316 V229C limits assumed) above
Method: Here, spectra are deconvolved into three resonances, referred to as S1−2, S3, and S3′, in keeping with previously published work[1].
NMR samples typically consisted of 250 μL volumes of 25–200 μM A2AR-V229C in 50 mM HEPES buffer (pH 7.4) and 100 mM NaCl, doped with 10% D2O. The receptor was stabilized in 0.1% MNG-3 and 0.02% CHS. All ^19F NMR experiments were performed on a 600 MHz Varian Inova spectrometer using a cryogenic triple resonance probe, with the high frequency channel tunable to either ^1H or ^19F. […] Most spectra were acquired with 10,000–50,000 scans depending on sample concentration. Processing typically involved zero filling, and exponential apodization equivalent to 20 Hz line broadening.

apo A2AR-V229C [1] = target: T3, apo A2AR-V229C (Homo sapiens, UniProt P29274, V229C); experiment: 23Na NMR binding isotherm (line width / chemical shift)
T3 sequence (P29274 1-316 V229C limits assumed): as above
Method: Relaxation dispersions associated with ^23Na CPMG experiments, shown in Fig. 2e, provide an additional measure of cation binding and exchange dynamics.
The experiments were performed on a 600 MHz Varian VNMRS spectrometer using a room temperature XH broadband probe (X-nucleus on the inner coil). […] An external ^23Na reference was prepared by mixing 50 mM NaCl and 50 mM TmCl3 in equal volumes prior to loading into the coaxial insert. […] Information regarding binding can be reliably obtained by observing the shift of the free peak and line broadening associated with fast exchange between “free” and “bound” states.

apo A2AR-V229C [2] = target: T3, apo A2AR-V229C; experiment: 25Mg NMR line width binding isotherm and Ca2+ competition; parameters: alpha-factor secretion leader (Fα-Factor) (N); Flag (N); TEV site (N); His10 (H10) (C); made in house; host or cells: Pichia pastoris SMD 1163
Method: The experiment was performed on an Agilent DD2-600 NMR, equipped with a 10 mm low gamma direct detect probe and low frequency pre-amp. The experimental parameters used were as follows: 20 °C, a Larmor frequency of 36.72 MHz, a spectral width of 2.5 kHz, 1.1 s acquisition time, 0.5 s relaxation time, a 30 µs 90° excitation pulse, and between 128 and 2048 scans depending on the signal-to-noise ratio. For the Kd determination of Mg^2+ the following protocol was used: A 1 M MgCl2 solution with 10 mM DyCl3 in D2O was used as a reference and was placed in a 5-mm OD tube. A sample of 1.5 mL of the protein solution was placed in a 10-mm OD NMR tube. The reference tube was thoroughly cleaned and inserted into the 10-mm tube and centered with a plastic cap. Titration volumes of 3–37 µL of 4.64 M MgCl2 were added directly to the 10-mm tube which was then gently mixed using a vortex shaker. The sample was allowed to equilibrate in the magnet for 10 min at the set temperature and the sample was then locked, tuned, gradient shimmed and acquired. […] The sample was allowed to equilibrate at the set temperature in the magnet for 10 min and then locked, tuned, gradient shimmed and acquired. The Kd and Ki values were determined, using GraphPad Prism 6 software, by fitting the data to the formula, y = A × x/(Kd + x), where x represents the cation concentration.

SMILES | effect of cation on specific [3H]NECA binding (A2AR + Gs) | effect on active state population (BTFMA-labeled A2AR-V229C) | effect on populations of functional states (BTFMA-labeled A2AR-V229C) | also measured
[Fe+2] [Fe^2+] | no positive allosteric effects | did not |  | 
[Cl-].[Na+] [sodium, NaCl] |  |  | shifts the equilibrium toward the inactive ensemble | Kd (apo A2AR-V229C [1]; read-out: dissociation constant Kd of sodium, apo A2AR-V229C 50 μM, line width-based isotherm, 10–1000 mM NaCl): 60 mM and ~60 mM
[Ca+2].[Cl-].[Cl-] [Ca^2+, CaCl2] | significantly enhance | detectable increase in the proportion of active states | shift the equilibrium of apo A2AR toward the active states | effect on [3H]NECA high affinity saturation (A2AR + Gs): enhance maximal specific [^3H]NECA binding and affinity (Kd); EC50 (A2AR + Gs): 0.35 to 0.4 mM; EC50 (A2AR + Gs; listed as Ca2+): 0.35 mM; Ki (apo A2AR-V229C [2]; 50 mM 25Mg2+, increasing CaCl2, 50 µM apo-A2AR-V229C, read-out: Ki of Ca2+ displacement of Mg2+): 98 ± 41 mM
NC(N)=NC(=O)c1nc(Cl)c(N2CCCCCC2)nc1N [HMA, 5-(N,N-hexamethylene)amiloride, reference compound] |  |  |  | competition with sodium in 23Na NMR binding isotherm (apo A2AR-V229C [1]; 100 mM NaCl, stoichiometric equivalents of HMA): compete with sodium
[Cl-].[K+] [KCl] |  |  | no significant change | 
[Cl-].[Cl-].[Mg+2] [Mg^2+, MgCl2] | significantly enhance | detectable increase in the proportion of active states; also recorded: obvious increase in the active S3′ state population | shift the equilibrium of apo A2AR toward the active states | effect on [3H]NECA high affinity saturation (A2AR + Gs): enhance maximal specific [^3H]NECA binding and affinity (Kd); EC50 (A2AR + Gs): 0.35 to 0.4 mM; EC50 (A2AR + Gs; listed as Mg2+): 0.35 mM; Kd (apo A2AR-V229C [2]; 50 µM apo-A2AR-V229C, 100 mM Na+, N=1, fitting error, read-out: dissociation constant Kd of MgCl2): 60 ± 15 mM
[Cl-].[Cl-].[Zn+2] [Zn^2+, ZnCl2] | reduce high affinity binding; also recorded: reduced binding; also recorded: no positive allosteric effects |  |  | 
